{
  "source": "patent US20240210394A1",
  "about": "“MICROORGANISM CAPTURE FROM ANTIMICROBIAL-CONTAINING SOLUTION” (MOMENTUM BIOSCIENCE LIMITED, priority 2019, published 2024)",
  "key": {"E. coli [1]": {"system": "E. coli", "test": "ETGA (microbial polymerase) qPCR after microbial capture (Magnitor test)", "type": "cell-based", "parameters": "ETGA results CV: unit not given here", "procedure": "The Magnitor test consists of two microbial detection read-outs: • ETGA: detection of microbial polymerase from intact microbial cells • Confirm: detection of microbial DNA according to gram status (Gram Negative, Gram Positive, or Candida) […]\n• E. coli o/n liquid culture 1E-3 dilution spiked into blood broth (6.25 μL o/n per mL: 244 μL o/n+39 mL blood broth) and […] out-growth performed in shaking incubator @ 37° C., 500 rpm • Following 2-hour outgrowth, samples produced by adding 1 mL specimen to 2 mL tube containing buffer (and 15 μL BioEstapor beads (Merck, Cat #BE-M 08/0.3) for Mag Beads sample-set): triplicate E. coli (EC) and No Spike Control (NSC) samples per test condition • 100 μL TVCs performed for NSC and E. coli (including dilutions of specimen to ensure countable plates)\n• Samples centrifuged for 3 minutes at 9000×g (tube hinges facing outwards for pellet traceability) • Supernatants removed • 50 μL LM added to samples (approx. 10× pipette mixes to resuspend pellets) • Samples placed in shaking incubator at 900 rpm for 5 minutes and then 800 rpm for 55 minutes (26° C.) • Centrifuge samples at 17000×g for 1 minute before qPCR set-up\n• Samples placed in shaking incubator at 900 rpm for 30 minutes (37° C.) • Samples placed on DynaMag-2 magnetic rack for 5 minutes and then supernatants removed • 50 μL LM added to samples (approx. 10× pipette mixes to resuspend pellets) • Samples placed in shaking incubator at 900 rpm for 5 minutes and then 800 rpm for 55 minutes (26° C.) • Magnetise samples for 3 minutes before qPCR set-up Manual qPCR set-up (10 μL reactions) for ETGA mastermix only\n• E. coli o/n liquid culture set-up as standard in BacTec PLUS aerobic broth, then following day (approx. 16 hours later) 1.88 μL o/n added to 3 mL broth (equivalent to EC 1E-1 dilution added to broth at 6.25 μL/mL) and 2-hour outgrowth performed at 37° C., 500 rpm. • Following 2-hour outgrowth, E. coli preculture serially diluted (DF10) down to EC 1E-6 in either prewarmed blood-broth (BB), broth only (BO) or 1× buffer (B-BUF or Tris+NaCl). • 100 μL TVCs performed for all E. coli dilutions and NSCs\n• 1 mL samples added to 2 mL tubes containing 112 μL of binding buffer (either B-BUF or Tris+NaCl: 10× for BB and BO sample-sets; and 1× for Buffer sample-sets)+15 μL beads (prewashed in respective buffer) • 30 mins shaking (1000 rpm) @ 37° C. • 5 mins magnetisation on DynaMag-2 • All s/n removed • 1 mL WB added and tubes mixed for 2 mins @ RT (1000 rpm) • 5 mins magnetisation on Dynmag-2 • All s/n removed • 50 μL LM added to tubes off magnet (5 μL Polymerase Control (PC) added to each PC sample tube) • ETGA reaction performed: 5 mins at 1000 rpm, then 55 mins at 800 rpm @26° C. • Manual qPCR set-up for ETGA and Confirm (10 μL reactions)\n• E. coli o/n liquid cultures set-up as standard in BacTec PLUS aerobic broth (containing SPS) and Nutrient Broth (NB containing no SPS), then the following day (approx. 16 hours later) 1.88 μL o/n added to 3 mL broth (equivalent to EC 1E-1 dilution added to broth at 6.25 μL/mL) for each broth type (NB in morning and PLUS broth in afternoon), and 2-hour outgrowth incubations performed at 37° C., 500 rpm. • For each experiment (NB and PLUS), 1E-1 E. coli preculture diluted down to E. coli 1E-6 (DF10) in each 1× buffer (BUF-1 to BUF-6) • 100 μL TVCs performed using a separate EC dilution set performed in relevant broth (NB or PLUS broth) to prevent plate viability inconsistencies resulting from different 1× buffers […]"}, "E. coli [2]": {"system": "E. coli", "test": "Confirm PCR multiplex (microbial DNA, GrNeg channel) after microbial capture", "type": "cell-based", "parameters": "key: Ct values (qPCR cycle threshold)"}},
  "note": "“And” between values parts separate entries of the source, which are not always exact repeats. Equal entries are not always repeated.",
  "data": [
    {"substance": "Sodium polyanethol sulfonate [SPS]", "values": [
      {"measurement": "ETGA results Ave. ΔCt", "setting": "E. coli [1]; WB SPS 0.01 %", "value": 4.70},
      {"measurement": "ETGA results CV", "setting": "E. coli [1]; WB SPS 0.01 %", "value": 56.59},
      {"measurement": "ETGA results", "setting": "E. coli [1]; WB SPS 0.01 %, EC 1-3 replicates, Time ZERO", "value": "27.90 Ct and 29.12 Ct and 28.14 Ct"},
      {"measurement": "ETGA results", "setting": "E. coli [1]; WB SPS 0.01 %, NSC 1-3 replicates, NoCt changed to 50 Ct", "value": "33.39 Ct and 33.06 Ct and 32.81 Ct"},
      {"measurement": "ETGA results Ave. ΔCt", "setting": "E. coli [1]; WB SPS 0.02 %", "value": 7.28},
      {"measurement": "ETGA results CV", "setting": "E. coli [1]; WB SPS 0.02 %", "value": 6.16},
      {"measurement": "ETGA results", "setting": "E. coli [1]; WB SPS 0.02 %, EC 1-3 replicates, Time ZERO", "value": "26.41 Ct and 25.88 Ct and 27.24 Ct"},
      {"measurement": "ETGA results", "setting": "E. coli [1]; WB SPS 0.02 %, NSC 1-3 replicates, NoCt changed to 50 Ct", "value": "33.20 Ct and 33.77 Ct and 34.41 Ct"},
      {"measurement": "ETGA results Ave. ΔCt", "setting": "E. coli [1]; WB SPS 0.04 %", "value": 9.65},
      {"measurement": "ETGA results CV", "setting": "E. coli [1]; WB SPS 0.04 %", "value": 4.40},
      {"measurement": "ETGA results", "setting": "E. coli [1]; WB SPS 0.04 %, EC 1-3 replicates, Time ZERO", "value": "29.31 Ct and 29.43 Ct and 29.70 Ct"},
      {"measurement": "ETGA results", "setting": "E. coli [1]; WB SPS 0.04 %, NSC 1-3 replicates, NoCt changed to 50 Ct", "value": "38.93 Ct and 39.93 Ct and 38.54 Ct"},
      {"measurement": "ETGA results Ave. ΔCt", "setting": "E. coli [1]; WB SPS 0.06 %", "value": 15.74},
      {"measurement": "ETGA results CV", "setting": "E. coli [1]; WB SPS 0.06 %", "value": 0.02},
      {"measurement": "ETGA results", "setting": "E. coli [1]; WB SPS 0.06 %, EC 1-3 replicates, Time ZERO", "value": "28.70 Ct and 28.50 Ct and 27.62 Ct"},
      {"measurement": "ETGA results", "setting": "E. coli [1]; WB SPS 0.06 %, NSC 1-3 replicates, NoCt changed to 50 Ct", "value": "44.62 Ct and 44.11 Ct and 43.30 Ct"},
      {"measurement": "ETGA results Ave. ΔCt", "setting": "E. coli [1]; WB SPS 0.08 %", "value": 18.12},
      {"measurement": "ETGA results CV", "setting": "E. coli [1]; WB SPS 0.08 %", "value": 0.01},
      {"measurement": "ETGA results", "setting": "E. coli [1]; WB SPS 0.08 %, EC 1-3 replicates, Time ZERO", "value": "32.31 Ct and 31.94 Ct and 31.40 Ct"},
      {"measurement": "ETGA results", "setting": "E. coli [1]; WB SPS 0.08 %, NSC 1-3 replicates, NoCt changed to 50 Ct", "value": 50.00, "unit": "Ct"},
      {"measurement": "ETGA results Ave. EC", "setting": "E. coli [1]; WB SPS 0.1 %", "value": 34.07, "unit": "Ct"},
      {"measurement": "ETGA results Ave. NSC", "setting": "E. coli [1]; WB SPS 0.1 %", "value": 50.00, "unit": "Ct"},
      {"measurement": "ETGA results Ave. ΔCt", "setting": "E. coli [1]; WB SPS 0.1 %", "value": 15.93},
      {"measurement": "ETGA results CV", "setting": "E. coli [1]; WB SPS 0.1 %", "value": 0.02},
      {"measurement": "ETGA results", "setting": "E. coli [1]; WB SPS 0.1 %, EC 1-3 replicates, Time ZERO", "value": "33.76 Ct and 34.37 Ct and 34.08 Ct"},
      {"measurement": "ETGA results", "setting": "E. coli [1]; WB SPS 0.1 %, NSC 1-3 replicates, NoCt changed to 50 Ct", "value": 50.00, "unit": "Ct"},
      {"measurement": "Confirm GrNeg results", "setting": "E. coli [2]; WB SPS 0.01 %, EC 1-3 replicates", "value": "27.94 and 29.18 and 28.32"},
      {"measurement": "Confirm GrNeg results", "setting": "E. coli [2]; WB SPS 0.01 %, NSC 1-3 replicates", "value": "NoCt"},
      {"measurement": "Confirm GrNeg results", "setting": "E. coli [2]; WB SPS 0.02 %, EC 1-3 replicates", "value": "29.15 and 28.16 and 29.75"},
      {"measurement": "Confirm GrNeg results", "setting": "E. coli [2]; WB SPS 0.02 %, NSC 1-3 replicates", "value": "NoCt"},
      {"measurement": "Confirm GrNeg results", "setting": "E. coli [2]; WB SPS 0.04 %, EC 1-3 replicates", "value": "28.71 and 28.75 and 29.82"},
      {"measurement": "Confirm GrNeg results", "setting": "E. coli [2]; WB SPS 0.04 %, NSC 1-3 replicates", "value": "NoCt"},
      {"measurement": "Confirm GrNeg results", "setting": "E. coli [2]; WB SPS 0.06 %, EC 1-3 replicates", "value": "31.58 and 29.77 and 29.26"},
      {"measurement": "Confirm GrNeg results", "setting": "E. coli [2]; WB SPS 0.06 %, NSC 1-3 replicates", "value": "NaCt and NoCt (2×)"},
      {"measurement": "Confirm GrNeg results", "setting": "E. coli [2]; WB SPS 0.08 %, EC 1-3 replicates", "value": "29.20 and 29.80 and 28.87"},
      {"measurement": "Confirm GrNeg results", "setting": "E. coli [2]; WB SPS 0.08 %, NSC 1-3 replicates", "value": "NoCt"},
      {"measurement": "Confirm GrNeg results", "setting": "E. coli [2]; WB SPS 0.1 %, EC 1-3 replicates", "value": "29.27 and 28.65 and 29.61"},
      {"measurement": "Confirm GrNeg results", "setting": "E. coli [2]; WB SPS 0.1 %, NSC 1-3 replicates", "value": "47.82 and NoCt (2×)"}
    ]}
  ]
}
